pIC50: −log10 of the molar value.
target: Insulin receptor (Homo sapiens, UniProt P06213); assay: Inhibition of GST-tagged intracellular domain of IR by homogeneous time-resolved fluorescence assay

pIC50, < 5.00:
C=c1nns/c1=c1\[nH][nH]c(=O)c1=Cc1cn(C)c2cccc(OCc3cccc(F)c3)c12
C=c1nns/c1=c1\[nH][nH]c(=O)c1=Cc1cn(C)c2cccc(OCc3ccccc3)c12
C=c1nns/c1=c1\[nH][nH]c(=O)c1=Cc1cn(C)c2cccc(OCc3ccc(F)cc3)c12
C=c1nns/c1=c1\[nH][nH]c(=O)c1=Cc1cn(C)c2cccc(OCc3ccccc3F)c12
C=c1nns/c1=c1\[nH][nH]c(=O)c1=Cc1cn(C)c2cccc(OCc3ccc(F)cc3F)c12

Reference: BindingDB's records for doi:10.1016/j.bmcl.2011.10.055 (Cephalon, 2011)
